Reference: PubChem BioAssay AID489024 (Sanford-Burnham Center for Chemical Genomics, 2010)
Activity calls are given as the source filed them.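 How the source made its calls: active means compounds whose mean EC50, the dose giving half the maximal reporter activation, is at or below a set limit; inactive means the rest.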

target: CHO-CHOP luciferase reporter, UPR activation, luminescence; experiment: activators of PERK-eIF2a-CHOP UPR arm, confirmation, CHO-CHOP cells, luciferase luminescence (AID 489024);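 further: compounds added alone to reporter cells with no tunicamycin stress co-treatment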

Row | Compound | EC50
1 | O=C1C(Cl)=C(NC(=O)c2ccccc2)C(=O)C(Cl)=C1NC(=O)c1ccccc1 | > 80 µM (inactive)
2 | O=C1NC(=O)N(c2ccccc2)C(=O)/C1=C/C=C/c1ccco1 | 9.82 µM
3 | CCc1nnc(NC(=O)CSc2nc(-c3ccccc3)cc(-c3ccc(OC)cc3)c2C#N)s1 | 13 µM
4 | COc1cc(CNc2ccc3[nH]c(=O)[nH]c3c2)cc(Br)c1OCc1ccccc1F | > 80 µM (inactive)
5 | COc1cccc2sc(Nc3nnc(-c4cccs4)o3)nc12 | 6.83 µM
6 | N#CC1(C#N)COC23CCCCC2C1(C#N)C(=N)O3 (centres undefined) | 19.3 µM
7 | C/C(CC(C)(C)C1CCCCC1)=N\NC(N)=S | 12 µM
8 | O=C(N/N=C/c1ccc(O)c(O)c1)NC12CC3CC(CC(C3)C1)C2 | 3.34 µM
9 | Cc1ccc(Sc2c([N+](=O)[O-])c(=O)n(C)c3ccccc23)cc1 | > 80 µM (inactive)
10 | CC(C)c1ccc(N2C(=O)CC(Sc3nc4ccccc4o3)C2=O)cc1 (centres undefined) | 15.9 µM
11 | Cc1cc(C(=O)CCl)c(C)n1-c1cccc([N+](=O)[O-])c1 | 8.64 µM
12 | CCCCCCCC(=O)Nc1ccc(C(=O)N/N=C/c2cccc([N+](=O)[O-])c2)cc1 | inactive
13 | COc1cc(/C=C2\CC(C(C)(C)C)C/C(=C\c3cc(OC)c(OC)c(OC)c3)C2=O)cc(OC)c1OC (centres undefined) | 6.19 µM
14 | COc1ccc2c(c1)CCc1c(C(=O)Nc3cc(C)n(Cc4ccc(Cl)cc4)n3)noc1-2 | 14 µM
15 | O=C(CSC(=S)N1CCCC1)c1cc(Br)cc(Br)c1O | inactive
16 | O=C(/C(=C/c1cccc(Cl)c1)c1nc2ccccc2[nH]1)c1ccccc1 | 6.66 µM
17 | CC(C)N1C/C(=C/c2ccsc2)C(=O)/C(=C/c2ccsc2)C1 | 7.08 µM
18 | Cc1cc(C(=O)c2ccc(C(C)(C)C)cc2)c(NC(=O)CCl)s1 | 12.4 µM
19 | O=[N+]([O-])c1ccc(N/N=C/c2cccc(O)c2O)c(S(=O)(=O)N2CCOCC2)c1 | 6.53 µM
20 | C/C(=N\NC(=O)c1ccc(Cl)cc1)c1ccccn1 | 8.06 µM
21 | CC(=O)Oc1ccc(OC(C)=O)c(SCCCCCN2CCOCC2)c1 | 16.1 µM
22 | CCc1cc2c(=O)c(-c3cnn(-c4ccccc4)c3)c(C)oc2cc1OCC(=O)Nc1cccc(C)c1 | 15.1 µM

Row | Compound | EC50
23 | CC(=O)c1cccc(N=Cc2c(O)c3ccccc3oc2=O)c1 | 9.66 µM
24 | CCOC(=O)c1sc(NC(=S)NC(=O)c2ccccc2)c(C(=O)OCC)c1C | > 80 µM (inactive)
25 | CCOC(=O)c1ccc(N=C2C(=S)N(c3ccc(C(=O)OCC)cc3)C(=N)N2/N=C/c2ccccc2)cc1 | > 80 µM (inactive)
26 | Cc1ccccc1S(=O)(=O)NC1OC(=O)C(Cl)=C1Cl (centres undefined) | > 80 µM (inactive)
27 | O=C(N/N=C/c1ccccn1)c1ccc(Cl)c(Cl)c1 | 2.93 µM
28 | CCOC(=O)c1c(-c2ccc(-c3ccccc3)cc2)csc1NC(=O)CNCCN(C)C | 7.71 µM
29 | OCCNc1nc(Nc2ccc(Br)cc2)nc2ccccc12 | 8.18 µM
30 | O=Cc1ccc(O)c2ncccc12 | 10.3 µM
31 | CCOC(=O)C1CCN(Cc2ccc(O)c3ncccc23)CC1 | 2.74 µM
32 | Oc1c(C(c2ccccc2Cl)N2CCCC2)ccc2cccnc12 (centres undefined) | 5.76 µM
33 | Cc1nc([N+](=O)[O-])c(Br)n1CC(=O)c1ccc2ccccc2c1 | > 80 µM (inactive)
34 | CN(C)C(=S)N=Nc1[nH]c2ccccc2c1O | 6.88 µM
35 | Cc1ccc(-c2cc(NC(=O)CCl)n(-c3ccccc3)n2)cc1 | 6.42 µM
36 | Oc1ccc(/C=N/N2CCCCC2)cc1O | inactive
37 | CCOc1cccc(C(=O)Nc2cccc(-c3nnc(-c4ccc(C)cc4)o3)c2)c1 | > 80 µM (inactive)
38 | O=C1NC(=O)C(=Cc2ccc(-c3ccc(Cl)cc3)o2)C(=O)N1 | 18.2 µM
39 | Cc1ccc(-c2csc3ncnc(Sc4nnc(CN5CCCCCC5=O)o4)c23)cc1 | 17.3 µM
40 | Cc1ccc2nc(-c3ccc(NC(=S)NC4CC(C)(C)NC(C)(C)C4)cc3)sc2c1 | 6.95 µM
41 | Cc1ccc(-c2nc(NC(=O)c3nn(C)cc3[N+](=O)[O-])sc2C)cc1C | 6.33 µM
42 | O=C(CSc1ccccn1)Nc1nonc1[N+](=O)[O-] | 19.1 µM
43 | CCc1cccc(CC)c1NC(=O)/C(C#N)=C/c1ccccc1C(F)(F)F | > 80 µM (inactive)
44 | O=C(/C=C1\NC2(CCCC2)Cc2ccccc21)C(=O)N/N=C/c1ccc(O)c(O)c1 | 9.4 µM

Row | Compound | EC50
45 | C[C@@H](NC(=O)c1coc(=O)c(Br)c1)c1ccccc1 | 9.34 µM
46 | Cc1ccc(Nc2nc(-c3ccc(O)c(O)c3)cs2)nc1 | 1.56 µM
47 | CCOC(=O)c1c(CSC(=N)N)n(-c2ccc(C)cc2)c2cc(Br)c(OC(C)=O)cc12 | > 80 µM (inactive)
48 | Cc1ccc(-c2nc(NC(=O)c3nn(C)cc3[N+](=O)[O-])sc2C)cc1 | 8.48 µM
49 | Cc1ccc(NC(=O)c2nc(S(=O)(=O)Cc3ccccc3C)ncc2Cl)cc1C | 8.51 µM
50 | Cn1c2ccccc2c2cc(/C=N/NC(=O)c3cc(O)ccc3O)ccc21 | 5.37 µM
51 | O=c1c2c3c(sc2ncn1/N=C/c1ccc([N+](=O)[O-])o1)CCCC3 | 7.01 µM
52 | O=C(Nc1ccc2oc(-c3ccncc3)nc2c1)c1ccc([N+](=O)[O-])o1 | 0.82 µM
53 | Cc1ccc(C)c(NC(=S)c2ccccn2)c1 | inactive
54 | Cc1nn(-c2ccccc2)c(C)c1/C=N/NC(=O)CSc1nc2ccccc2c(=O)n1-c1ccc(Br)cc1 | 9.85 µM
55 | COc1ccccc1-c1nnc(Nc2nc3c(OC)cccc3s2)o1 | 2.48 µM
56 | Cc1ccc2nc(-c3ccc(O)c(O)c3)cn2c1 | 3.6 µM
57 | O=S(=O)(Nc1cccc2cccnc12)c1ccccc1 | 4.18 µM
58 | COc1ccc(CCn2c(C)cc(C(=O)CCl)c2C)cc1OC | > 80 µM (inactive)
59 | COc1ccc2[nH]cc(C(=O)CCl)c2c1 | > 80 µM (inactive)
60 | O=C(CSc1cccc2cccnc12)N/N=C/c1cccnc1 | 7.64 µM
61 | CCOC(=O)c1c(C)oc2c1c(C(c1ccccc1)N1CCOCC1)c(O)c1ccccc12 (centres undefined) | 18 µM
62 | Cc1ccc(-c2nnc(-c3ccc(NC(=O)c4cccs4)cc3)o2)cc1 | 16 µM
63 | CCc1ccccc1NC(=S)N=Nc1c(O)n(C)c2ccc(S(=O)(=O)N3CCOCC3)cc12 | > 80 µM (inactive)
64 | CCCCOC(=O)/C=C\C(=O)NC(N)=O | 13.8 µM
65 | O=C(C#Cc1cccc([N+](=O)[O-])c1)c1ccccc1 | 8.96 µM
66 | CCCCn1c(/C=N/Nc2nc3ccccc3[nH]2)nc2ccccc21 | 12.3 µM

Row | Compound | EC50
67 | COc1ccc(C(=O)C(CN2CCCC2)c2ccccc2)cc1 (centres undefined) | 13.9 µM
68 | C/C(=N\NC(=O)COc1ccccc1-c1ccccc1)c1ccccn1 | 6.49 µM
69 | Oc1ccc(CN2CCN(c3ccccc3)CC2)c2cccnc12 | inactive
70 | CC(C)CNC(=O)c1coc(=O)c(Br)c1 | 12 µM
71 | O=C(Nc1ccc(S(=O)(=O)N2CCOCC2)cc1)c1ccc([N+](=O)[O-])o1 | 0.98 µM
72 | CCc1ccc(NC(=O)C(CC)Sc2nc3cc4c(cc3c(=O)n2Cc2ccco2)OCO4)cc1 (centres undefined) | 14.9 µM
73 | O=C(c1ccc(Cl)cc1)C(CN1CCCC1)c1ccccc1 (centres undefined) | 14.3 µM
74 | Cc1ccc(-c2nn(-c3ccccc3)cc2C=C2C(=O)CC(C)(C)CC2=O)cc1 | 13.2 µM
75 | O=C(Nc1ccc(N2CCOCC2)cc1)c1ccc([N+](=O)[O-])o1 | 4.64 µM
76 | CCn1cc(C(=O)NC(=S)Nc2sc3c(c2C(=O)OC)CCCCCC3)cn1 | inactive
77 | O=S(=O)(CCSc1nc2ccccc2s1)c1nc2ccccc2s1 | 11.6 µM
78 | O=C(Nc1ccc(Cc2ccncc2)cc1)c1ccc([N+](=O)[O-])o1 | 1.54 µM
79 | COc1cc2nc(NC(=O)c3ccc(Cl)cc3)sc(=O)c2cc1OC | inactive
80 | Cc1ccc(C)c(C(=O)Cn2ncc(Cl)c(Cl)c2=O)c1 | 10.8 µM
81 | O=[N+]([O-])c1ccc(C=Nc2ccc(Cl)c([N+](=O)[O-])c2)s1 | > 80 µM (inactive)
82 | COCc1ccc(O)c2ncccc12 | 15.1 µM
83 | COc1cc(SC#N)ccc1N=Cc1c(C)[nH]n(-c2ccc(C)c(C)c2)c1=O | 12.8 µM
84 | CN1CCN(Cc2cc(COCc3ccccc3)c3cccnc3c2O)CC1 | 12.8 µM
85 | COc1ccc(/C=C/C(=O)c2ccc(C(=O)/C=C/c3ccc(OC)c(OC)c3)cc2)cc1OC | > 80 µM (inactive)
86 | O=C(CSc1nc2ccc(Nc3nc(N4CCOCC4)nc(N4CCOCC4)n3)cc2s1)Nc1ccccc1F | 14.7 µM
87 | COc1ccc(CC2=CC(=O)c3ccccc3C2=O)cc1 | 12.4 µM
88 | CCN(CC)c1ccc(C=C2C(=O)NC(=S)NC2=O)cc1 | 11.9 µM

Row | Compound | EC50
89 | COc1nc(N)nc(NC(=O)c2cccs2)c1N=O | 17.9 µM
90 | Cc1ccc(C(=O)/C=C/C(=O)c2ccc(C)cc2)cc1 | 8.35 µM
91 | Cc1cc(C(=O)Cn2ncc(Cl)c(Cl)c2=O)c(C)n1CC(F)(F)F | 4.15 µM
92 | O=C(CCl)c1ccc(Cc2ncc(C(F)(F)F)cc2Cl)s1 | 9.69 µM
93 | Cc1cc(C)n(-c2nc(NC(C)(C)C)nc(NC(C)(C)C)n2)n1 | > 80 µM (inactive)
94 | CN(C(=O)CSc1cc(C(=O)c2nccn2C)c2ccccc2n1)c1ccccc1 | 7.96 µM
95 | COc1ccccc1N=Cc1c(O)c2ccccc2oc1=O | 12.5 µM
96 | O=C1/C(=C/c2ccc(N3CCOCC3)o2)SC(=Nc2ccccc2)N1CCc1c[nH]c2ccccc12 | 16.6 µM
97 | Cc1nn(Cc2c(Cl)cccc2Cl)c(C)c1NC(=O)c1cn(-c2ccccc2)nc1-c1ccccc1 | 7.37 µM
98 | O=C(NCc1ccccc1Cl)c1cccc2c1C(=O)c1ccc(-c3ccc(OC(F)(F)F)cc3)cc1S2(=O)=O | > 80 µM (inactive)
99 | COc1ccc(-c2cc3ccccc3oc2=O)cc1NC(=S)NC(=O)c1ccc2c(c1)OCCO2 | 14.9 µM
100 | Cc1ccc(C(=O)Oc2ccc(Cl)c3cccnc23)cc1[N+](=O)[O-] | inactive
101 | Clc1ccc(-n2nnnc2Sc2ncnc3sccc23)cc1 | > 80 µM (inactive)
102 | O=C(Nc1ccc(O)c2c(=O)cc(-c3cccc(Cl)c3)oc12)c1ccccc1Cl | inactive
103 | CCOc1cc(C=C(C(=O)OC)C(=O)OC)ccc1OCc1ccc([N+](=O)[O-])cc1 | 6.82 µM
104 | COc1cccc2sc(Nc3nc(C)c(C(C)=O)s3)nc12 | 14.7 µM
105 | O=[N+]([O-])c1cc(-c2ncccn2)c([N+](=O)[O-])s1 | 7.51 µM
106 | CCOC(=O)c1cnc(Nc2nc3ccccc3o2)nc1CSC(=S)N1CCCCC1 | 1.3 µM
107 | CC(C)N=c1scc(-c2ccco2)n1/N=C/c1ccc(O)c(O)c1 | 1.1 µM
108 | CC(C)[C@H](NC(=O)OC(C)(C)C)c1nnc(S(=O)(=O)Cc2c(F)cccc2Cl)o1 | > 80 µM (inactive)
109 | O=c1nc(Nc2cccc(Cl)c2)oc2cc(Cl)oc(=O)c12 | 11.5 µM
